In paper PMC9599351 (2022):

System: RIV aptamer (DNA, aptamer) TAGGGAAGAGAAGGACATATGATGACTCACAACTGGACGAACGTACTTATCCCCCCCAATCACTAGTGAATT
Assay: square-wave voltammetry aptasensor
Details: K+ 0.01 M (KCl); [Fe(CN)6]3−/4−; concentration tested not stated

Structure (SMILES)	binding
N=C(N)NCCC[C@H](N)C(=O)O	weak
N[C@@H](CS)C(=O)O	weak
OC[C@H]1OC(O)[C@H](O)[C@@H](O)[C@@H]1O (some centres unmarked)	no

The remaining lines, values ahead:

binding	Structure (SMILES)
no	NCC(=O)O
weak	O=C(O)[C@@H]1CCCN1
